These are literature values, as cited in patent US6174886A, “Antipsychotic use of triazolo-pyridazine derivatives” (Merck Sharp & Dohme Ltd., priority 1997, dated 2001).

SMILES strings stand for the structures.

For the series, the system named is schizophrenic patients with an acute psychotic episode.

On to `CC(C)(C)OC(=O)c1ncn2c1[C@@H]1CCCN1C(=O)c1c(Br)cccc1-2` [bretazenil], for which the antipsychotic efficacy result was “moderate antipsychotic efficacy” and the “most frequent adverse reaction reported in the study” value was “sedation”.
